{
  "source": "patent US20190209506A1",
  "about": "“METHODS OF REDUCING OR PREVENTING OXIDATION OF LDL OR LIPID MEMBRANES IN A SUBJECT IN NEED THEREOF” (Amarin Pharmaceuticals Ireland Limited, priority 2018, published 2019)",
  "key": {"[1]": {"tested_on": "Human sdLDL particles", "assay": "Kinetic model of MDA formation in sdLDL oxidation (Example 15)", "type": "biochemical", "experimental": "Human sdLDL particles were isolated and incubated in vitro with vehicle or with varying concentrations of EPA, DHA, or EPA and DHA. Once incubated, copper sulfate (CuSO4) was added to induce oxidation of the sdLDL particles. The sdLDL particles were then assayed for the detection of malondialdehyde (MDA), a known marker of oxidation.\nVarious kinetic models were evaluated and eventually fit to the sdLDL oxidation data to describe the concentration of MDA in each sample. Both population parameter estimates and associated variabilities were generated for the formation of MDA (Kf) and degradation of MDA (Ke) rates.\nThe final kinetic model is a 1 compartment model having a first order Ke and an additive first order Kf."}, "[2]": {"assay": "LOOH formation in membrane vesicles, fatty acid comparison (Example 16)", "type": "biochemical", "conditions": "5 μM", "experimental": "Iodometric approaches were used to measure in vitro LOOH formation in membrane vesicles reconstituted as binary mixtures of cholesterol and dilinoleoyl phosphatidylcholine. Vesicles were prepared at a cholesterol-to-phospholipid mole ratio of 0.6:1 and subjected to autoxidation (e.g., lipid oxidation) at 37° C. Lipid oxidation was stimulated with 0.1 μM copper sulfate for 48 hours. All FAs were delivered at 5 and 10 μM."}},
  "data": [
    {"smiles": "CC/C=C\\C/C=C\\C/C=C\\C/C=C\\C/C=C\\CCCC(=O)O", "note": "[EPA, cis-5,8,11,14,17-eicosapentaenoic acid]", "values": [
      {"measurement": "reduction of Kf (formation rate of MDA)", "setting": "[1]; 5 μM, after 8 hours", "result": 54, "unit": "%"},
      {"measurement": "reduction of Kf predicted by the kinetic model", "setting": "[1]; 10 μM alone, predicted", "result": 73, "unit": "%"},
      {"measurement": "activity of EPA greater than ALA by", "setting": "[2]", "result": 213, "unit": "%"},
      {"measurement": "activity of EPA greater than DHA by", "setting": "[2]", "result": 279, "unit": "%"},
      {"measurement": "activity of EPA greater than DPA by", "setting": "[2]", "result": 121, "unit": "%"},
      {"measurement": "activity of EPA greater than ETE by", "setting": "[2]", "result": 174, "unit": "%"},
      {"measurement": "reduction of LOOH levels compared to the vehicle", "setting": "[2]; 0.1 μM copper sulfate, 48 hours", "result": 77, "unit": "%"}
    ]}
  ]
}
